What was measured:
in vivo = settings: mouse
Method: The acute toxicity of the products of the invention was determined on groups of 20 Swiss OF1 mice weighing 22 to 24 grams by intravenous route.

[1] = system: inflammation in the paw of the rat; experiment: Analgesic activity, brewer's yeast paw inflammation pressure test (derived from Randall and Selito); format: in vivo, rat (male Sprague-Dawley); settings: 100 mg/kg oral, 1 hour after administration
Method: The analgesic activity of the products was studied on male Sprague-Dawley rats in groups of 15 by a method derived from that of Randall and Selito (Arch. Int. Pharmacodyn. 1957 (III) page 409). This method consists in causing a painful inflammation in the paw of the rat by injecting 0.1 ml of a 20% brewer's yeast solution, then applying a pressure to the inflammation and determining the value of the pressure at which a painful reaction of the animal appears.
The activity of the products was studied after 1 hour of administration by oral route at the rate of one dose of 100 mg/kg in comparison with untreated animals. In this test aspirin was chosen as reference substance.
The analgesic effect of the products is expressed by the percentage increase of the pressure endured by the treated animals in relation to that endured by the untreated animals.
The results of the analgesic activity of the product tested are expressed in relation to the activity of aspirin administered by oral route at a dose of 100 mg/kg.

rat duodenum = experiment: Spasmolytic activity in vitro against barium chloride, isolated rat duodenum; settings: for Spasmolytic activity compared with papaverine hydrochloride / spasmolytic index/papaverine hydrochloride: rat duodenum; for Spasmolytic activity compared with papaverine hydrochloride: BaCl2 50 mg/l, relative EC50 comparison; for spasmolytic index/papaverine hydrochloride: relative index I from activity and relative toxicity, calculated in mmoles; for relative index of spasmolytic activity compared with papaverine: summary statement, times higher than the reference
Method: (§1) The spasmolytic activity of the products was studied in vitro with regard to two distinct agonists, namely:
(§2) The organ fragments were kept alive in a tank containing a solution of Tyrode (37° C., pH 7.2, oxygenated by the mixture O2 /CO2, 95%/5%).
(§3) The isotonic contractions were recorded graphically on a physiograph by means of a transducer. […] The values obtained are compared with those of spasmolytic agents selected as reference and are determined under the same experimental conditions, namely:
papaverine hydrochloride for the convulsant effect of barium chloride;

cornea of the rabbit = experiment: Local anaesthetic activity on contact, rabbit cornea (derived from Regnier); format: in vivo, rabbit (male albino); settings: for Local anaesthetic activity: effect compared with lidocaine: 1% solution, relative to lidocaine hydrochloride at identical concentration, rabbit cornea; for local anaesthesia/lidocaine hydrochloride index: relative index I from activity and relative toxicity, calculated in mmoles
Method: The local anaesthetic activity on contact is determined on the cornea of the rabbit according to a method derived from the technique of Regnier (Regnier J. R. Salle P. Bull. Soc. Pharmacol. 1926 33, 91).
Male albino rabbits weighing 2 to 3 kg are used in groups of 5. The product solution to be tested is injected in a volume of 0.2 ml into the conjunctival sac. The cornea is then stimulated by means of a hair 3, 6, 10, 15, 20, 25, 45 and 60 minutes after injection.
The local anaesthetic activity is thus expressed in relation to this reference product.

guinea-pig ileum = experiment: Spasmolytic activity in vitro against nicotine, isolated guinea-pig ileum; settings: for Spasmolytic activity compared with hexamethonium dibromide: nicotine 1 mg/l, relative EC50 comparison; for spasmolytic index/hexamethonium dibromide: relative index I from activity and relative toxicity, calculated in mmoles
Method: as §1, §2, §3
hexamethonium dibromide for the convulsant effect of nicotine (table V).

[2] = reference substances, mice, intravenous

| Compound | LD50 at 192 h (in vivo; iv) [mg/kg] | Analgesic activity in relation to aspirin [1] | Spasmolytic activity compared with papaverine hydrochloride (rat duodenum) | spasmolytic index/papaverine hydrochloride (rat duodenum) | Local anaesthetic activity: effect compared with lidocaine (cornea of the rabbit) | local anaesthesia/lidocaine hydrochloride index (cornea of the rabbit) | Spasmolytic activity compared with hexamethonium dibromide (guinea-pig ileum) | spasmolytic index/hexamethonium dibromide (guinea-pig ileum) | relative index of spasmolytic activity compared with papaverine (rat duodenum) | LD50 at 192 h (in vivo; [2]) [mg/kg] |
| --- | --- | --- | --- | --- | --- | --- | --- | --- | --- | --- |
| CCC(COCc1ccc(OC)c(OC)c1)(c1ccccc1)N(C)C (stereo not drawn) [Example 1, 1-[(3,4-dimethoxy)benzyloxymethyl]-1-phenyl-N,N-dimethyl-n-propylamine] | 30 | 1 | 2.7 | 2.45 | 1.6 | 1.52 | 0.9 | 1.29 |  |  |
| CCC(COCc1cc(OC)c(OC)c(OC)c1)(c1ccccc1)N(C)C (stereo not drawn) [Example 2, 1-[(3,4,5-trimethoxy)benzyloxymethyl]-1-phenyl-N,N-dimethyl-n-propylamine] | 42 |  | 5.4 | 6.90 | 2.2 | 2.95 | 1.2 | 2.42 | up to seven |  |
| CCC(COCc1ccccc1)(c1ccccc1)N(C)C (stereo not drawn) [Example 3, 1-Benzyloxymethyl-1-phenyl-N,N-dimethyl-n-propylamine] | 41.4 |  | 0.9 | 1.125 | 1.4 | 1.85 | 3.4 | 6.69 |  |  |
| CCCCOCC(CC)(c1ccccc1)N(C)C (stereo not drawn) [Example 4] | 26.8 |  |  |  |  |  |  |  |  |  |
| CCCCCCCCCCOCC(CC)(c1ccccc1)N(C)C (stereo not drawn) [Example 5] | 37 | 2.5 | 0.5 | 0.56 |  |  | 2.2 | 3.85 |  |  |
| CCC(COCc1ccc(C)cc1)(c1ccccc1)N(C)C (stereo not drawn) [Example 6] | 48.6 |  |  |  |  |  |  |  |  |  |
| CCC(COc1ccccn1)(c1ccccc1)N(C)C (stereo not drawn) [Example 7] | 37 |  | 1.7 | 1.89 | 1.1 | 1.30 | 1.0 | 1.75 |  |  |
| CCC(COCc1ccccn1)(c1ccccc1)N(C)C (stereo not drawn) [Example 9] | 39 |  | 0.4 | 0.475 | 0.7 | 0.875 | 1.4 | 2.62 |  |  |
| CCC(COCc1cccnc1)(c1ccccc1)N(C)C (stereo not drawn) [Example 10] | 43 | 1.8 | 0.4 | 0.525 |  |  | 1.7 | 3.50 |  |  |
| CCC(CN(C)C)(OCc1cc(OC)c(OC)c(OC)c1)c1ccccc1 (stereo not drawn) [Example 11, 2-[(3,4,5-trimethoxy)benzyloxy]-2-phenyl-N,N-dimethyl-n-butylamine] | 46.7 | 2.3 | 1.9 | 2.69 | 1.0 | 1.49 | 2.6 | 5.76 |  |  |
| CCC(COCc1cc(OC)c(OC)c(OC)c1)(NC)c1ccccc1 (stereo not drawn) [Example 12, 1-[(3,4,5-trimethoxy)benzyloxymethyl]-1-phenyl-N-methyl-n-propylamine] | 34 |  | 1.2 | 1.24 | 1.7 | 1.84 | 2.3 | 4.09 |  |  |
| COc1ccc(C(C)(COCc2ccc(Cl)cc2)N(C)C)cc1 (stereo not drawn) [Example 13] | 48.4 |  |  |  | 1.1 | 1.71 |  |  |  |  |
| Cc1ccc(COCC(C)(c2ccc(Cl)c(Cl)c2)N(C)C)cc1 (stereo not drawn) [Example 15] | 160 |  |  |  |  |  |  |  |  |  |
| COc1ccc(CC(C)(N)COCc2ccccc2)cc1OC (stereo not drawn) [Example 17, 1-Benzyloxymethyl-1-methyl-(3,4-dimethoxy)-phenethyl-amine] | 51.6 |  |  |  |  |  |  |  |  |  |
| COc1ccc(CC(C)(COCc2ccccc2)N(C)C)cc1OC (stereo not drawn) [Example 18] | 27.3 |  |  |  |  |  |  |  |  |  |
| COc1ccc(CCC(C)(COCc2cc(OC)c(OC)c(OC)c2)N(C)C)cc1OC (stereo not drawn) [Example 19] | 30.7 |  |  |  | 0.95 | 0.92 |  |  |  |  |
| CCC(COc1ccc(OC)cc1)(c1ccccc1)N(C)C (stereo not drawn) [Example 21, 1-[(4-methoxy)phenoxymethyl]-1-phenyl-N,N-dimethyl-n-propylamine] | 140 |  | 1.7 | 7.28 | 0.45 | 2.00 | 1.7 | 11.33 | up to seven |  |
| CCC(CN(C)C)(Oc1ccc(OC)cc1)c1ccccc1 (stereo not drawn) [Example 22, 2-[(4-methoxy)phenoxy]-2-phenyl-N,N-dimethyl-n-butylamine] | 59.6 |  |  |  |  |  |  |  |  |  |
| CC(=O)Oc1ccccc1C(=O)O [aspirin, reference compound] |  | 1 |  |  |  |  |  |  |  |  |
| C[N+](C)(C)CCCCCC[N+](C)(C)C [hexamethonium, reference compound] |  |  |  |  |  |  |  |  |  | 21 |
| COc1ccc(Cc2nccc3cc(OC)c(OC)cc23)cc1OC [papaverine, reference compound] |  |  |  |  |  |  |  |  |  | 33.1 |

— patent US4301163A, “Amino-ether oxides and use thereof in therapy” (priority 1979, dated 1981)
